Measurements taken from patent US20230087118A1, “IMIDAZO[1,2-a][sequence] DERIVATIVES AND THEIR USE IN THE TREATMENT OF DISEASE” (priority 2019, published 2023).
Counter-ions that a name gives are not always drawn.

The compounds below were run against T1, IRAK4 (Homo sapiens, UniProt Q9NWZ3) (assay: biochemical). Details: not given.
T1 sequence (Q9NWZ3 1-460): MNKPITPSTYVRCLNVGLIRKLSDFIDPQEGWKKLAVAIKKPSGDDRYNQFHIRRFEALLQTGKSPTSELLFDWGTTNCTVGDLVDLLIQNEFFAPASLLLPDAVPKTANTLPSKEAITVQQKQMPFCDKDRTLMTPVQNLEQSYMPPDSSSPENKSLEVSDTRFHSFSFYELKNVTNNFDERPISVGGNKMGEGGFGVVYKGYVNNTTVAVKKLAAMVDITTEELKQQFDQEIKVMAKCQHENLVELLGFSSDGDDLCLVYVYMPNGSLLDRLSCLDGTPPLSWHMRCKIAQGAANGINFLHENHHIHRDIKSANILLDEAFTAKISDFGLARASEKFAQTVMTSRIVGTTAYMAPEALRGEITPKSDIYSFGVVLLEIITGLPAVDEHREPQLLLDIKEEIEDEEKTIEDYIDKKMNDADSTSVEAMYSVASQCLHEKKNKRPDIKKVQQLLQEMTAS

SMILES | IC50
CCCOc1nc(C(=O)Nc2cccc(C(F)(F)F)n2)cn2cc(C34COC(C)(C3)C4)nc12 [Example 343, 2-(1-Methyl-2-oxabicyclo[2.1.1]hexan-4-yl)-8-propoxy-N-(6-(trifluoromethyl)pyridin-2-yl)imidazo[1,2-a]pyrazine-6-carboxamide] | 0.0048 µM
CC12CCC(c3cn4cc(C(=O)Nc5cccn6cnnc56)c(OC5CCC5)cc4n3)(CO1)C2 (stereo not shown) [Example 540, N-([1,2,4]triazolo[4,3-a]pyridin-8-yl)-7-cyclobutoxy-2-(1-methyl-2-oxabicyclo[2.2.1]heptan-4-yl)imidazo[1,2-a]pyridine-6-carboxamide] | 0.0008 µM
CC(C)Oc1cc2nc(C3CC3)cn2cc1C(=O)Nc1cccc(CO)n1 [Example 483, 2-Cyclopropyl-N-(6-(hydroxymethyl)pyridin-2-yl)-7-isopropoxyimidazo[1,2-a]pyridine-6-carboxamide] | 0.009 µM
CC(C)Oc1cc2nc(Cl)cn2cc1C(=O)Nc1cccc(C(F)F)n1 [Example 265, 2-Chloro-N-(6-(difluoromethyl)pyridin-2-yl)-7-isopropoxyimidazo[1,2-a]pyridine-6-carboxamide] | 0.0067 µM
CCn1ccc(NC(=O)c2cn3cc(C45CCC(C)(C4)OC5)nc3cc2OC2CCC2)n1 (stereo not shown) [Example 533, 7-Cyclobutoxy-N-(1-ethyl-1H-pyrazol-3-yl)-2-(1-methyl-2-oxabicyclo[2.2.1]heptan-4-yl)imidazo[1,2-a]pyridine-6-carboxamide] | 0.0037 µM
COCc1cc2nc(C34COC(C)(C3)C4)cn2cc1C(=O)Nc1cccn(C)c1=O [Example 287, 7-(Methoxymethyl)-N-(1-methyl-2-oxo-1,2-dihydropyridin-3-yl)-2-(1-methyl-2-oxabicyclo[2.1.1]hexan-4-yl)imidazo[1,2-a]pyridine-6-carboxamide] | 7.14 µM
COc1cc2nc(C3CCOCC3)cn2cc1C(=O)Nc1cccnc1C(C)C [Example 187] | 0.148 µM
CC12CCC(c3cn4cc(C(=O)Nc5cnn6cccnc56)c(OC5CC5)cc4n3)(CO1)C2 (stereo not shown) [Example 554] | 0.0008 µM
Cc1cnc2c(NC(=O)c3cn4cc(C56CCC(C)(C5)OC6)nc4cc3OC3CC3)cnn2c1 (stereo not shown) [Example 555] | 0.0016 µM
CCOc1nc(C(=O)Nc2cc(F)cn(C)c2=O)cn2cc([C@@H]3CCCOC3)nc12 (single isomer, unassigned) [Example 596] | 0.0063 µM
C[C@@]12CC[C@@](c3cn4cc(C(=O)Nc5cccc(C(F)F)n5)cc(OC(F)F)c4n3)(CO1)C2 (single isomer, unassigned) [Example 584] | 0.0154 µM
CC(C)Oc1c(C(=O)Nc2cccc(C(F)F)n2)cn2cc(C34COC(C)(C3)C4)nc2c1F [Example 217] | 0.0017 µM
COc1ncccc1NC(=O)c1cn2cc([C@@]34CC[C@@](C)(C3)OC4)nc2c(OC)n1 (single isomer, unassigned) [Example 587] | 0.0032 µM
CC12CCC(c3cn4cc(C(=O)Nc5ccn(CC#N)n5)c(OC5CCC5)cc4n3)(CO1)C2 (stereo not shown) [Example 532, N-(1-(cyanomethyl)-1H-pyrazol-3-yl)-7-cyclobutoxy-2-(1-methyl-2-oxabicyclo[2.2.1]heptan-4-yl)imidazo[1,2-a]pyridine-6-carboxamide] | 0.0029 µM
Cn1ccc(NC(=O)c2cn3cc(C45COC(C)(C4)C5)nc3c(OC3CCC3)n2)n1 [Example 346, 8-Cyclobutoxy-N-(1-methyl-1H-pyrazol-3-yl)-2-(1-methyl-2-oxabicyclo[2.1.1]hexan-4-yl)imidazo[1,2-a]pyrazine-6-carboxamide] | 0.0085 µM
COCc1nc2nc(C34COC(C)(C3)C4)cn2cc1C(=O)Nc1cnn2cc(C)cnc12 [Example 352, 7-(Methoxymethyl)-2-(1-methyl-2-oxabicyclo[2.1.1]hexan-4-yl)-N-(6-methylpyrazolo[1,5-a]pyrimidin-3-yl)imidazo[1,2-a]pyrimidine-6-carboxamide] | 6.53 µM
CC(C)Oc1nc2nc([C@]34CC[C@](C)(C3)OC4)cn2cc1C(=O)Nc1cnn2cccnc12 (single isomer, unassigned) [Example 613] | 0.0005 µM
C[C@H](Oc1cc2nc(C34COC(C)(C3)C4)cn2cc1C(=O)Nc1cccc(C(F)F)n1)C1CC1 (single isomer, unassigned) [Example 656] | 0.0002 µM
CC(C)Oc1cc2nc([C@@]34CC[C@@](C)(C3)OC4)cn2cc1C(=O)Nc1cccn(C(F)F)c1=O (single isomer, unassigned) [Example 624] | 0.0002 µM
CCOc1nc(C(=O)Nc2cc(F)cnc2OC)cn2cc(C3CCCOC3)nc12 (stereo not shown) [Example 271, 8-Ethoxy-N-(5-fluoro-2-methoxypyridin-3-yl)-2-(tetrahydro-2H-pyran-3-yl)imidazo[1,2-a]pyrazine-6-carboxamide] | 0.0073 µM
CC(C)Oc1cc2nc([C@@]34CC[C@@](C)(C3)OC4)cn2cc1C(=O)Nc1cccc(C(F)F)n1 (single isomer, unassigned) [Example 609] | 0.0001 µM
CC12CCC(c3cn4cc(C(=O)Nc5cccn(C(F)F)c5=O)c(OC5CC5)cc4n3)(CO1)C2 (stereo not shown) [Example 553] | 0.0015 µM
CC(C)Oc1cc2nc(C34COC(C3)C4)cn2cc1C(=O)Nc1cccc(C(F)F)n1 [Example 544, 2-(2-Oxabicyclo[2.1.1]hexan-4-yl)-N-(6-(difluoromethyl)pyridin-2-yl)-7-isopropoxyimidazo[1,2-a]pyridine-6-carboxamide] | 0.0002 µM
COc1ncccc1NC(=O)c1cn2cc(C3CC3)nc2cc1OC1CCCC1 [Example 464, 7-(Cyclopentyloxy)-2-cyclopropyl-N-(2-methoxypyridin-3-yl)imidazo[1,2-a]pyridine-6-carboxamide] | 0.0081 µM
COc1ncccc1NC(=O)c1cn2cc(C34CCC(C)(C3)OC4)nc2nc1OC(C)C (stereo not shown) [Example 248] | 0.0002 µM
CCOc1nc2nc(C34COC(C)(C3)C4)cn2cc1C(=O)Nc1cccc(C(F)F)n1 [Example 241] | 0.0015 µM
CCOc1nc(C(=O)Nc2cccc(C(F)F)c2)cn2cc(C34COC(C)(C3)C4)nc12 [Example 494, N-(3-(difluoromethyl)phenyl)-8-ethoxy-2-(1-methyl-2-oxabicyclo[2.1.1]hexan-4-yl)imidazo[1,2-a]pyrazine-6-carboxamide] | 0.0039 µM
CC(C)Oc1cc2nc([C@@]34CC[C@@H](C3)OC4)cn2cc1C(=O)Nc1ccn(C)n1 (single isomer, unassigned) [Example 580] | 0.0017 µM
CC12CC(c3cn4cc(C(=O)Nc5cccn(C(F)F)c5=O)c(OC5CCCC5)cc4n3)(CO1)C2 [Example 457, 7-(Cyclopentyloxy)-N-(1-(difluoromethyl)-2-oxo-1,2-dihydropyridin-3-yl)-2-(1-methyl-2-oxabicyclo[2.1.1]hexan-4-yl)imidazo[1,2-a]pyridine-6-carboxamide] | 0.0002 µM
CC(C)Oc1nc2nc(C34COC(C)(C3)C4)cn2cc1C(=O)Nc1cccc(C(F)F)c1 [Example 386, N-(3-(difluoromethyl)phenyl)-7-isopropoxy-2-(1-methyl-2-oxabicyclo[2.1.1]hexan-4-yl)imidazo[1,2-a]pyrimidine-6-carboxamide] | 0.0012 µM

Same assay, conditions: IRAK4 Biochemical Assay (1 mM ATP, 2 h) IC50 (μM), 1 mM ATP, 2 h, 100 pM IRAK4

SMILES | IC50
CC(C)Oc1cc2nc(C34COC(C)(C3)C4)cn2cc1C(=O)Nc1cncn(C)c1=O [Example 261, 7-Isopropoxy-N-(1-methyl-6-oxo-1,6-dihydropyrimidin-5-yl)-2-(1-methyl-2-oxabicyclo[2.1.1]hexan-4-yl)imidazo[1,2-a]pyridine-6-carboxamide 2,2,2-trifluoroacetate] | 0.0047 µM
CC(C)Oc1nc2nc(C34COC(C)(C3)C4)cn2cc1C(=O)Nc1cccc(C#N)c1F [Example 353, N-(3-cyano-2-fluorophenyl)-7-isopropoxy-2-(1-methyl-2-oxabicyclo[2.1.1]hexan-4-yl)imidazo[1,2-a]pyrimidine-6-carboxamide trifluoroacetate] | 0.0025 µM
Cn1cccc(NC(=O)c2cn3cc(C4CC4)nc3c(OCCF)n2)c1=O [Example 637, 2-Cyclopropyl-8-(2-fluoroethoxy)-N-(1-methyl-2-oxo-1,2-dihydropyridin-3-yl)imidazo[1,2-a]pyrazine-6-carboxamide trifluoroacetate] | 0.0445 µM
COc1cccc(NC(=O)c2cn3cc([C@@]45COC[C@@H]4C5)nc3cc2OC)n1 [Example 30] | 0.0735 µM
CC12CC(c3cn4cc(C(=O)Nc5cccn(C(F)F)c5=O)c(OC5CC(C(F)F)C5)cc4n3)(CO1)C2 (stereo not shown) [Example 450, N-(1-(difluoromethyl)-2-oxo-1,2-dihydropyridin-3-yl)-7-(3-(difluoromethyl)cyclobutoxy)-2-(1-methyl-2-oxabicyclo[2.1.1]hexan-4-yl)imidazo[1,2-a]pyridine-6-carboxamide] | 0.0003 µM
CC(C)Oc1c(C(=O)Nc2cccc(C(F)(F)F)n2)cn2cc(C34COC(C)(C3)C4)nc2c1F [Example 230, 8-Fluoro-7-isopropoxy-2-(1-methyl-2-oxabicyclo[2.1.1]hexan-4-yl)-N-(6-(trifluoromethyl)pyridin-2-yl)imidazo[1,2-a]pyridine-6-carboxamide trifluoroacetate] | 0.003 µM
CC(C)Oc1nc2nc(C34CCC(C)(CC3)OC4)cn2cc1C(=O)Nc1cccn(C)c1=O [Example 654, 7-isopropoxy-N-(1-methyl-2-oxo-1,2-dihydropyridin-3-yl)-2-(1-methyl-2-oxabicyclo[2.2.2]octan-4-yl)imidazo[1,2-a]pyrimidine-6-carboxamide] | 0.0005 µM
